# Measurements taken from patent publication US7112586B2, “Substituted diamine derivatives useful as motilin antagonists” (Ortho-McNeil Pharmaceutical, Inc., priority 2000, dated 2006).
# Molecular target: T1, Motilin Receptor (Oryctolagus cuniculus, UniProt G1T803)
# T1 construct: The muscle tissue was homogenized in 10 volumes of 50 mM Tris-Cl; from tissue; host or cells: rabbit colon smooth muscle, crude membrane homogenate
# Assay: Motilin receptor binding, rabbit colon membranes, 125I porcine motilin
# Design: Rabbit Colon % Inh / inhibition / % Inh (Rabbit colon): dose or concentration left out as unconfirmed
# Conditions: rabbit colon membranes
# Description: Rabbit colon was removed, dissected free from the mucosa and serosa, and diced into small pieces. The muscle tissue was homogenized in 10 volumes of 50 mM Tris-Cl, 10 mM MgCl2, 0.1 mg/ml bacitracin, and 0.25 mM Peflabloc, at pH 7.5 in a Polytron (29000 rpm, 4×15 seconds). The homogenate was centrifuged at 1000×g for 15 minutes and the supernatant discarded. The pellet was washed twice before being suspended in homogenizing buffer. The crude homogenate was resuspended through a 23 gauge needle before storing at −80° C. […] After 60 minutes at 30° C., the samples were cooled in ice, centrifuged in the cold at 13000×g for 1 minute. The pellet was washed twice with 1 ml of cold saline, the supernatant was aspirated, and the pellet at the bottom of the tube counted in a gamma counter. Non-specific binding was determined by the inclusion of 1 mM of unlabeled motilin. IC50 values were determined from Kaleidograph curves.
# T1 sequence (G1T803 1-400): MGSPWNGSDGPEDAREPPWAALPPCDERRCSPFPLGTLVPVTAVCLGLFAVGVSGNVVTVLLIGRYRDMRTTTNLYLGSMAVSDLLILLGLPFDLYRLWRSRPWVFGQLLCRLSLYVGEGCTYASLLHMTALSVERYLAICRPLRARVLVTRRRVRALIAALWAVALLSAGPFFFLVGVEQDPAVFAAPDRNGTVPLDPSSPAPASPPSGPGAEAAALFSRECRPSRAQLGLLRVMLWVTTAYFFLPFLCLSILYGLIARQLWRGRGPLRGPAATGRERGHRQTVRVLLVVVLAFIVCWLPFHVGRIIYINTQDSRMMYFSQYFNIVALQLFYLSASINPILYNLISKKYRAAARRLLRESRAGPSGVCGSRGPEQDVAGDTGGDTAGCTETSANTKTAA
row,SMILES,Rabbit Colon % Inh [%]
1,O=C(Nc1ccccc1)N(CC1CCCC(N(Cc2cccc(Cl)c2)C(=O)c2cccc([N+](=O)[O-])c2)C1)c1cccc(OCCN2CCOCC2)c1 (centres unmarked) [compound 55],48
2,O=C(Nc1ccccc1)N(CC1CCCC(N(Cc2cccc(Cl)c2)C(=O)C(c2ccccc2)c2ccccc2)C1)c1cccc(OCCN2CCOCC2)c1 (centres unmarked) [compound 56],27
3,O=C(Nc1ccccc1)N(CC1CCCC(N(Cc2cccc(F)c2)C(=O)C(Cl)(Cl)Cl)C1)c1cccc(OCCN2CCOCC2)c1 (centres unmarked) [compound 58],38
4,O=C(Nc1ccccc1)N(CC1CCCC(N(Cc2ccc(Cl)c(Cl)c2)C(=O)C(Cl)(Cl)Cl)C1)c1cccc(OCCN2CCOCC2)c1 (centres unmarked) [compound 59],23
5,COc1cccc(CN(C(=O)C(Cl)(Cl)Cl)C2CCCC(CN(C(=O)Nc3ccccc3)c3cccc(OCCN4CCOCC4)c3)C2)c1 (centres unmarked) [compound 61],55
6,O=C(Nc1ccccc1)N(CC1CCCC(N(Cc2cccc(C(F)(F)F)c2)C(=O)C(Cl)(Cl)Cl)C1)c1cccc(OCCN2CCOCC2)c1 (centres unmarked) [compound 62],58
7,O=C(Nc1ccccc1)N(CC1CCCC(N(Cc2ccc(Cl)cc2)C(=O)C(Cl)(Cl)Cl)C1)c1cccc(OCCN2CCOCC2)c1 (centres unmarked) [compound 63],55
8,O=C(Nc1ccccc1)N(CC1CCCC(N(Cc2cccc3ccccc23)C(=O)C(Cl)(Cl)Cl)C1)c1cccc(OCCN2CCOCC2)c1 (centres unmarked) [compound 64],32
9,O=C(Nc1ccccc1)N(CC1CCCC(N(Cc2cccc(Cl)c2Cl)C(=O)C(Cl)(Cl)Cl)C1)c1cccc(OCCN2CCOCC2)c1 (centres unmarked) [compound 66],39
10,O=C(Nc1ccccc1)NC1CCCC(CN(C(=O)Nc2ccccc2)c2cccc(OCCN3CCOCC3)c2)C1 (centres unmarked) [compound 69],0
11,O=C(NC1CCCC(CN(C(=O)Nc2ccccc2)c2cccc(OCCN3CCOCC3)c2)C1)c1ccco1 (centres unmarked) [compound 70],0
12,O=C(Nc1ccccc1)N(CC1CCCC(NS(=O)(=O)c2ccc3ccccc3c2)C1)c1cccc(OCCN2CCOCC2)c1 (centres unmarked) [compound 71],43
13,O=C(Nc1ccccc1)N(CC1CCCC(NC(=O)C(F)(F)F)C1)c1cccc(OCCN2CCOCC2)c1 (centres unmarked) [compound 73],25
14,O=C(NC1CCCC(CN(C(=O)Nc2ccccc2)c2cccc(OCCN3CCOCC3)c2)C1)c1cc(C(F)(F)F)cc(C(F)(F)F)c1 (centres unmarked) [compound 74],29
15,O=C(NC1CCCC(CN(C(=O)Nc2ccccc2)c2cccc(OCCN3CCOCC3)c2)C1)c1ccc(-c2ccccc2)cc1 (centres unmarked) [compound 75],19
16,COc1cccc(C(=O)NC2CCCC(CN(C(=O)Nc3ccccc3)c3cccc(OCCN4CCOCC4)c3)C2)c1 (centres unmarked) [compound 76],26
17,CC(C)(C)C(=O)NC1CCCC(CN(C(=O)Nc2ccccc2)c2cccc(OCCN3CCOCC3)c2)C1 (centres unmarked) [compound 77],19
18,O=C(CCc1ccccc1)NC1CCCC(CN(C(=O)Nc2ccccc2)c2cccc(OCCN3CCOCC3)c2)C1 (centres unmarked) [compound 78],10
19,O=C(NC1CCCC(CN(C(=O)Nc2ccccc2)c2cccc(OCCN3CCOCC3)c2)C1)c1ccc2ccccc2c1 (centres unmarked) [compound 79],39

row,SMILES,Rabbit Colon % Inh [%]
1,O=C(NC1CCCC(CN(C(=O)Nc2ccccc2)c2cccc(OCCN3CCOCC3)c2)C1)c1cccc([N+](=O)[O-])c1 (centres unmarked) [compound 80],34
2,O=C(NC1CCCC(CN(C(=O)Nc2ccccc2)c2cccc(OCCN3CCOCC3)c2)C1)C(c1ccccc1)c1ccccc1 (centres unmarked) [compound 81],56
3,O=C(Nc1ccccc1)N(CC1CCCC(N(Cc2ccccc2)C(=O)c2cc(C(F)(F)F)cc(C(F)(F)F)c2)C1)c1cccc(OCCN2CCOCC2)c1 (centres unmarked) [compound 82],0
4,O=C(Nc1ccccc1)N(CC1CCCC(N(Cc2ccccc2)C(=O)c2ccc(-c3ccccc3)cc2)C1)c1cccc(OCCN2CCOCC2)c1 (centres unmarked) [compound 83],3
5,O=C(Nc1ccccc1)N(CC1CCCC(N(Cc2cccc(Cl)c2)C(=O)c2cccc(O)c2)C1)c1cccc(OCCN2CCOCC2)c1 (centres unmarked) [compound 86],16
6,O=C(c1ccc(F)cc1)N(CC1CCCC(NC(=O)C(Cl)(Cl)Cl)C1)c1cccc(OCCN2CCOCC2)c1 (centres unmarked) [compound 91],36
7,O=C(c1ccc(F)cc1)N(CC1CCCC(N(Cc2cccc(Cl)c2Cl)C(=O)C(Cl)(Cl)Cl)C1)c1cccc(OCCN2CCOCC2)c1 (centres unmarked) [compound 92],80
8,O=C(c1ccc(F)cc1)N(CC1CCCC(N(Cc2cccc3ccccc23)C(=O)C(Cl)(Cl)Cl)C1)c1cccc(OCCN2CCOCC2)c1 (centres unmarked) [compound 94],28
9,O=C(c1ccc(F)cc1)N(CC1CCCC(N(Cc2ccc(Cl)cc2)C(=O)C(Cl)(Cl)Cl)C1)c1cccc(OCCN2CCOCC2)c1 (centres unmarked) [compound 95],51
10,COc1cccc(CN(C(=O)C(Cl)(Cl)Cl)C2CCCC(CN(C(=O)c3ccc(F)cc3)c3cccc(OCCN4CCOCC4)c3)C2)c1 (centres unmarked) [compound 97],56
11,O=C(c1ccc(F)cc1)N(CC1CCCC(N(Cc2cccc(F)c2)C(=O)C(Cl)(Cl)Cl)C1)c1cccc(OCCN2CCOCC2)c1 (centres unmarked) [compound 100],78
12,O=C(c1ccc(F)cc1)N(CC1CCCC(N(Cc2cccc(Cl)c2)C(=O)C(c2ccccc2)c2ccccc2)C1)c1cccc(OCCN2CCOCC2)c1 (centres unmarked) [compound 101],59
13,O=C(c1ccc(F)cc1)N(CC1CCCC(N(Cc2cccc(Cl)c2)C(=O)c2cccc([N+](=O)[O-])c2)C1)c1cccc(OCCN2CCOCC2)c1 (centres unmarked) [compound 102],47
14,O=C(c1ccc(F)cc1)N(CC1CCCC(N(Cc2cccc(Cl)c2)C(=O)c2ccc3ccccc3c2)C1)c1cccc(OCCN2CCOCC2)c1 (centres unmarked) [compound 103],2
15,O=C(c1ccc(F)cc1)N(CC1CCCC(N(Cc2cccc(Cl)c2)C(=O)CCc2ccccc2)C1)c1cccc(OCCN2CCOCC2)c1 (centres unmarked) [compound 104],30
16,O=C(c1ccc(F)cc1)N(CC1CCCC(N(Cc2cccc(Cl)c2)C(=O)c2cc(C(F)(F)F)cc(C(F)(F)F)c2)C1)c1cccc(OCCN2CCOCC2)c1 (centres unmarked) [compound 107],29
17,O=C(c1ccc(F)cc1)N(CC1CCCC(N(Cc2cccc(Cl)c2)C(=O)c2ccc(-c3ccccc3)cc2)C1)c1cccc(OCCN2CCOCC2)c1 (centres unmarked) [compound 109],27
18,O=C(c1ccc(F)cc1)N(CC1CCCC(N(Cc2ccccc2)C(=O)c2cccc([N+](=O)[O-])c2)C1)c1cccc(OCCN2CCOCC2)c1 (centres unmarked) [compound 113],51
19,O=C(c1ccc(F)cc1)N(CC1CCCC(N(Cc2ccccc2)C(=O)c2ccc3ccccc3c2)C1)c1cccc(OCCN2CCOCC2)c1 (centres unmarked) [compound 114],49

# Same assay, conditions: rabbit colon membranes; 125I porcine motilin binding
row,SMILES,% Inh (Rabbit colon) [%]
1,O=C(Nc1ccccc1)N(CC1CCCC(NCc2ccccc2)C1)c1cccc(OCCN2CCOCC2)c1 (centres unmarked) [compound 84],12
2,O=C(Nc1ccccc1)N(CC1CCCC(NCc2cccc(Cl)c2)C1)c1cccc(OCCN2CCOCC2)c1 (centres unmarked) [compound 85],28
3,O=C(Nc1ccccc1)N(CC1CCCC(NCc2cc(Cl)cc(Cl)c2)C1)c1cccc(OCCN2CCOCC2)c1 (centres unmarked) [compound 87],22
4,O=C(Nc1ccccc1)N(CC1CCCC(NCc2cccc3ccccc23)C1)c1cccc(OCCN2CCOCC2)c1 (centres unmarked) [compound 88],0

# Same assay, conditions: rabbit colon membranes; read-out: Rabbit Colon % Inh
row,SMILES,inhibition [%]
1,O=C(Nc1ccccc1)N(CC1CCCC(N(Cc2ccccc2)S(=O)(=O)c2ccc3ccccc3c2)C1)c1cccc(OCCN2CCOCC2)c1 (centres unmarked) [compound 57],15
2,O=C(Nc1ccccc1)N(CC1CCCC(N(Cc2cc(Cl)cc(Cl)c2)C(=O)C(Cl)(Cl)Cl)C1)c1cccc(OCCN2CCOCC2)c1 (centres unmarked) [compound 60],65
3,O=C(Nc1ccccc1)N(CC1CCCC(N(Cc2ccccc2)C(=O)C(Cl)(Cl)Cl)C1)c1cccc(OCCN2CCOCC2)c1 (centres unmarked) [compound 67],75
4,O=C(Nc1ccccc1)N(CC1CCCC(N(Cc2ccccn2)C(=O)C(Cl)(Cl)Cl)C1)c1cccc(OCCN2CCOCC2)c1 (centres unmarked) [compound 68],73
5,O=C(Nc1ccccc1)N(CC1CCCC(NC(=O)C(Cl)(Cl)Cl)C1)c1cccc(OCCN2CCOCC2)c1 (centres unmarked) [compound 72],40
6,O=C(c1ccc(F)cc1)N(CC1CCCC(N(Cc2cc(Cl)cc(Cl)c2)C(=O)C(Cl)(Cl)Cl)C1)c1cccc(OCCN2CCOCC2)c1 (centres unmarked) [compound 98],75
7,O=C(c1ccc(F)cc1)N(CC1CCCC(N(Cc2ccc(Cl)c(Cl)c2)C(=O)C(Cl)(Cl)Cl)C1)c1cccc(OCCN2CCOCC2)c1 (centres unmarked) [compound 99],62
8,COc1cccc(C(=O)N(Cc2cccc(Cl)c2)C2CCCC(CN(C(=O)c3ccc(F)cc3)c3cccc(OCCN4CCOCC4)c3)C2)c1 (centres unmarked) [compound 106],69
9,O=C(c1ccc(F)cc1)N(CC1CCCC(N(Cc2cccc(Cl)c2)C(=O)C(F)(F)F)C1)c1cccc(OCCN2CCOCC2)c1 (centres unmarked) [compound 108],70
10,O=C(c1ccc(F)cc1)N(CC1CCCC(N(Cc2cccc(Cl)c2)C(=O)C(Cl)(Cl)Cl)C1)c1cccc(OCCN2CCOCC2)c1 (centres unmarked) [compound 111],72
11,O=C(c1ccc(F)cc1)N(CC1CCCC(N(Cc2ccccc2)C(=O)C(c2ccccc2)c2ccccc2)C1)c1cccc(OCCN2CCOCC2)c1 (centres unmarked) [compound 112],70

# Same assay, conditions: rabbit colon membranes; read-out: Rabbit Colon IC50
row,SMILES,IC50 [nM]
1,O=C(Nc1ccccc1)N(CC1CCCC(N(Cc2cc(Cl)cc(Cl)c2)C(=O)C(Cl)(Cl)Cl)C1)c1cccc(OCCN2CCOCC2)c1 (centres unmarked) [compound 60],660
2,O=C(Nc1ccccc1)N(CC1CCCC(N(Cc2ccccc2)C(=O)C(Cl)(Cl)Cl)C1)c1cccc(OCCN2CCOCC2)c1 (centres unmarked) [compound 67],957
3,O=C(Nc1ccccc1)N(CC1CCCC(N(Cc2ccccn2)C(=O)C(Cl)(Cl)Cl)C1)c1cccc(OCCN2CCOCC2)c1 (centres unmarked) [compound 68],660
4,O=C(c1ccc(F)cc1)N(CC1CCCC(N(Cc2cc(Cl)cc(Cl)c2)C(=O)C(Cl)(Cl)Cl)C1)c1cccc(OCCN2CCOCC2)c1 (centres unmarked) [compound 98],760
5,O=C(c1ccc(F)cc1)N(CC1CCCC(N(Cc2ccc(Cl)c(Cl)c2)C(=O)C(Cl)(Cl)Cl)C1)c1cccc(OCCN2CCOCC2)c1 (centres unmarked) [compound 99],572
6,COc1cccc(C(=O)N(Cc2cccc(Cl)c2)C2CCCC(CN(C(=O)c3ccc(F)cc3)c3cccc(OCCN4CCOCC4)c3)C2)c1 (centres unmarked) [compound 106],1050
7,O=C(c1ccc(F)cc1)N(CC1CCCC(N(Cc2cccc(Cl)c2)C(=O)C(F)(F)F)C1)c1cccc(OCCN2CCOCC2)c1 (centres unmarked) [compound 108],815
8,O=C(c1ccc(F)cc1)N(CC1CCCC(N(Cc2cccc(Cl)c2)C(=O)C(Cl)(Cl)Cl)C1)c1cccc(OCCN2CCOCC2)c1 (centres unmarked) [compound 111],880
9,O=C(c1ccc(F)cc1)N(CC1CCCC(N(Cc2ccccc2)C(=O)C(c2ccccc2)c2ccccc2)C1)c1cccc(OCCN2CCOCC2)c1 (centres unmarked) [compound 112],480
